Measurements: patent US20190281845A1, “EDIBLE BIO-ACTIVE FILMS BASED ON CHITOSAN OR A MIXTURE OF QUINOA PROTEIN-CHITOSAN; SHEETS HAVING CHITOSAN-TRIPOLYPHOSPHATE-THYMOL NANOPARTICLES; PRODUCTION METHOD; BIO-PACKAGING COMPRISING SAME; AND USE THEREOF IN FRESH FRUIT WITH A LOW PH” (Universidad de Chile, priority 2016, published 2019)

Experiments:
E. coli [1] = settings: Guarda et al., 2011; cited from earlier work
P. aeruginosa = assay: Minimum inhibitory concentration in liquid culture (serial dilutions, turbidity); type: cell-based, Pseudomonas aeruginosa ATCC 27853; settings: Ps. aeruginosa; 24 h
Method: (§1) To evaluate the antimicrobial capacity of the ink prepared from the NQoT dispersion, the minimum concentration that is able to inhibit the visible development of the bacterial strains S. aureus; E. coli; P. aeruginosa; S. typhimurium; E. aerogenes and L. innocua in a liquid culture medium (trypticase soy broth), after 24 h incubation, was determined. Bacterial strains were obtained from an isolated colony on a selective and differential agar plate for each genus, and were inoculated in nutritious broth for 24 h at 37° C. with stirring until obtaining a saturated culture. Then, the desired concentration of microorganisms was determined, in comparison with the standard of McFarland 0.5, and the corresponding dilutions were made in order to reach a concentration of 1×10^5 CFU/ml (colony-forming units/ml). To each culture tube, agents in serial dilutions were added, and incubated at 37° C. for 24 h; then, the lowest concentration of the mixture capable of inhibiting bacterial growth, given by absence of turbidity in the culture medium, was determined. The solutions used to generate the Nps and nanoparticles without T in their formulation (NQo) were used as controls. […]

B. cinerea mycelium = assay: Inhibition of Botrytis cinerea mycelium (radial growth on agar); type: cell-based; settings: for Radial mycelial growth area: 6 days at 25° C., untreated 8.5 cm^2
Method: The antifungal activity of the NQoT dispersion was evaluated by inhibiting the radial development in the fungus mycelial plate, described by Yildirim et al., (2007). For that purpose, a portion of mycelium was sterilely taken, using a punch, from a strain previously cultivated for 5 days at 25° C., which was placed in the center of a potato dextrose agar plate mixed with dilutions of the NQoT dispersion until obtaining in the agar concentrations of 0.44 mg/ml (dispersion diluted to 10% v/v), 1.1 mg/ml (dispersion diluted to 25% v/v) and 2.2 mg/ml (dispersion diluted to 50% v/v). These plates were incubated for 6 days at 25° C., being evaluated every 24 h. The antifungal activity was determined through the mycelium propagation area of the plates containing NQoT, and were compared with agar plates containing T solutions, mixture of QoLMW-T, and the NQo dispersion in the same dilutions, and a culture of the fungus seeded in a plate without treatment, whose propagation on the surface of the plate (8.5 cm2) is equivalent to a 100% development, which was used as a parameter of growth comparison.
On the other hand, the antifungal capacity of the NQoTs confronted to the vegetative form of Botrytis cinerea was tested, wherein the growth inhibition of this fungus' mycelium was assessed, adding diluted concentrations to the culture medium of the NQoT dispersion. The dilutions tested corresponded to 10%, 25% and 50% v/v, and were compared to T's solutions, QoLMW-T mixture, and NQo dispersion in the same dilutions.
It was observed, when the culture medium lacked the solutions or dispersions to be tested (viability control), that the fungus spread over the surface of the plate (8.5 cm^2), equivalent to 100% growth, which was used as a growth comparison parameter.

S. typhimurium = assay: Minimum inhibitory concentration in liquid culture (serial dilutions, turbidity); type: cell-based, Salmonella serovar Typhimurium ATCC 14028; settings: S. Tiphymurium; 24 h
Method: as §1

A. niger = settings: Guarda et al., 2011; cited from earlier work
E. aerogenes = assay: Minimum inhibitory concentration in liquid culture (serial dilutions, turbidity); type: cell-based, Enterobacter aerogenes ATCC 13048; settings: 24 h
Method: as §1

S. aureus [2] = assay: as above; type: cell-based, Staphylococcus aureus ATCC 25923; settings: 24 h
Method: as §1

S. aureus [3] = settings: Guarda et al., 2011; cited from earlier work
E. coli [4] = assay: Minimum inhibitory concentration in liquid culture (serial dilutions, turbidity); type: cell-based, Escherichia coli ATCC 25922; settings: 24 h
Method: as §1

S. cereviciae = settings: Guarda et al., 2011; cited from earlier work
B. cinerea = assay: Minimum inhibitory concentration against the fungus; type: cell-based, Botrytis cinerea wt
Listeria innocua = settings: Guarda et al., 2011; cited from earlier work
L. innocua = assay: Minimum inhibitory concentration in liquid culture (serial dilutions, turbidity); type: cell-based, Listeria innocua ATCC 33090; settings: 24 h
Method: as §1

[5] = agent diluted to 10% v/v in culture medium
[6] = agent diluted to 25% v/v in culture medium

Cc1ccc(C(C)C)c(O)c1 [thymol]
Minimum inhibitory concentration (MIC) (E. coli [1]): 250 ppm
Minimum inhibitory concentration (P. aeruginosa): 0.225 gL^−1
Inhibition of mycelial growth versus viability control (B. cinerea mycelium; [5]): 4.7%
Radial mycelial growth area (B. cinerea mycelium; [5]): 8.1±0.1 cm^2
Inhibition of mycelial growth versus viability control (B. cinerea mycelium; [6]): 20%
Radial mycelial growth area (B. cinerea mycelium; [6]): 6.8±0.8 cm^2
Minimum inhibitory concentration (S. typhimurium): 0.250 gL^−1
Minimum inhibitory concentration (MIC) (A. niger): 250 ppm
Minimum inhibitory concentration (E. aerogenes): 0.250 gL^−1
Minimum inhibitory concentration (S. aureus [2]): 0.275 gL^−1
Minimum inhibitory concentration (MIC) (S. aureus [3]): 250 ppm
Minimum inhibitory concentration (E. coli [4]): 0.250 gL^−1
Minimum inhibitory concentration (MIC) (S. cereviciae): 125 ppm
Minimum inhibitory concentration (B. cinerea): 0.550 gL^−1
Minimum inhibitory concentration (MIC) (Listeria innocua): 250 ppm
Minimum inhibitory concentration (L. innocua): 0.275 gL^−1
